Measurements reported in article PMC6177235 (Bioorganic & medicinal chemistry, 2018).
In brackets after ≈: the same amount, converted by molar mass. Entries after “also recorded” stand apart in the source; their conditions may differ.

Assays:
[1] = tested on: HT-29, MDA-MB-231, MDA-MB-435 and OVCAR3 human cancer cell lines; assay: Cytotoxicity assays, statements on the whole panel of cell lines; settings: all cytotoxicity assays used
[2] = tested on: mitochondrial transmembrane potential (MTP) in HT-29 cells; assay: Mitochondrial transmembrane potential; type: cell-based, human
NF-κB p65 in HeLa cells = NF-κB p65 in HeLa cells (Homo sapiens, UniProt Q04206); assay: Enzyme-based ELISA assay for NF-κB inhibition; type: cell-based
[3] = Cytotoxicity assays, statements on the whole panel of cell lines; settings: human
melanoma tumor = settings: cited from earlier work
[4] = tested on: OVCAR3 human ovarian cancer cell line; assay: Cytotoxicity assay, OVCAR3 cells; type: cell-based; settings: OVCAR-3, 72 h, read-out: IC50 toward OVCAR3 cells
[5] = tested on: DU145 human prostate cancer cells; settings: prostate tumor model; cited from earlier work
in vitro = settings: human

Chain of NF-κB p65 in HeLa cells (Q04206 whole entry): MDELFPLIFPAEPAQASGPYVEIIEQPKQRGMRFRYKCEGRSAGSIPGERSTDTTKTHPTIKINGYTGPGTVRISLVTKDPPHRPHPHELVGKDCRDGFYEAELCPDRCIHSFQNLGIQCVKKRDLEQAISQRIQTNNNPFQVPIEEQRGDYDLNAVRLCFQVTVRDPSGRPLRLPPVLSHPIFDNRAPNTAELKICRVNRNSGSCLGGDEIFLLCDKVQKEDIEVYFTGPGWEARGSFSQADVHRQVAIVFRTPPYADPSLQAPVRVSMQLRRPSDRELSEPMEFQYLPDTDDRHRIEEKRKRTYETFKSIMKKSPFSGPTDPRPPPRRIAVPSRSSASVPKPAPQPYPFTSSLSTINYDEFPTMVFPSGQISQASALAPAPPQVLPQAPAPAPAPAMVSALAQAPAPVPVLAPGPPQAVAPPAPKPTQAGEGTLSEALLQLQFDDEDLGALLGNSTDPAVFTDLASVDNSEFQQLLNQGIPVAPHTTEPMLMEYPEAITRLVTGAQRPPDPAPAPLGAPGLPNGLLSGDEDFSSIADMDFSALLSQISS

Compound: C[C@H]1[C@H](C)CC[C@]2(CO)CC[C@]3(C)C(=CC[C@@H]4[C@@]5(C)CC[C@H](O)C(C)(C)[C@@H]5CC[C@]43C)[C@H]12 [Compound 10, (+)-uvaol]
- activity in the cytotoxicity assays (in words) [1]: did not show any activities
- activity in the MTP inhibition assay (in words) [2]: did not show any activities
- activity in the NF-κB inhibition assay (in words) (NF-κB p65 in HeLa cells): did not show any activities

Compound: CC1(C)CC[C@]2(CO)CC[C@]3(C)C(=CC[C@@H]4[C@@]5(C)CC[C@H](O)C(C)(C)[C@@H]5CC[C@]43C)[C@@H]2C1 [Compound 11, (+)-erythrodiol]
- activity in the cytotoxicity assays (in words) [1]: did not show any activities
- activity in the MTP inhibition assay (in words) [2]: did not show any activities
- activity in the NF-κB inhibition assay (in words) (NF-κB p65 in HeLa cells): did not show any activities

Compound: C=C(C)[C@@H]1CC[C@]2(C(=O)O)CC[C@]3(CO)[C@H](CC[C@@H]4[C@@]5(C)CC[C@H](O)C(C)(C)[C@@H]5CC[C@]43C)[C@@H]12 [Compound 6, (+)-cylicodiscic acid]
- IC50 at 72 h [3]: > 10 µM

Compound: C=C(C)[C@@H]1CC[C@]2(C(=O)O)CC[C@]3(C)[C@H](CC[C@@H]4[C@@]5(C)CC[C@H](O)C(C)(C)[C@@H]5CC[C@]43C)[C@@H]12 [Compound 9, (+)-betulinic acid]
- melanoma tumor growth in vivo (melanoma tumor; mice): inhibit completely
- toxicity observed in mice (melanoma tumor; mouse, in vivo): without any obvious toxicity
- activity in the cytotoxicity assays (in words) [1]: Neither 8 nor 9 showed activity
- activity in the MTP inhibition assay (in words) [2]: same potency as 1; also recorded: active

Compound: C=C(C)[C@@H]1CC[C@]2(C(=O)OC)CC[C@]3(C(=O)O)[C@H](CC[C@@H]4[C@@]5(C)CC[C@H](O)C(C)(C)[C@@H]5CC[C@]43C)[C@@H]12 [Compound 3, (+)-melaleucic acid 28-methyl ester]
- IC50 at 72 h [3]: > 10 µM
- activity in the NF-κB inhibition assay (in words) (NF-κB p65 in HeLa cells): exhibited activity

Compound: C[C@H]1[C@H](C)CC[C@]2(C(=O)O)CC[C@]3(C)C(=CC[C@@H]4[C@@]5(C)CC[C@H](O)C(C)(C)[C@@H]5CC[C@]43C)[C@H]12 [Compound 1, (+)-ursolic acid]
- IC50 [4]: 12.9 µg/mL (≈ 28.2 µM)
- mouse body weight [5]: without significant decrease

Compound: C=C(C)[C@@H]1CC[C@]2(C(=O)O)CC[C@]3(C)[C@H](CC[C@@H]4[C@@]5(C)C[C@@H](O)[C@H](OC(=O)/C=C/c6ccc(O)cc6)C(C)(C)[C@@H]5CC[C@]43C)[C@@H]12 [Compound 7, (+)-3-O−β-trans-p−coumaroylalphitolic acid]
- IC50 at 72 h (in vitro): > 10 µM
- activity in the NF-κB inhibition assay (in words) (NF-κB p65 in HeLa cells): exhibited activity

Compound: C=C(C)[C@@H]1CC[C@]2(C(=O)O)CC[C@]3(C)[C@H](CC[C@@H]4[C@@]5(C)CC[C@H](OC(=O)/C=C/c6ccc(O)c(OC)c6)C(C)(C)[C@@H]5CC[C@]43C)[C@@H]12 [S13, (+)-3β-O−tram,-feruloylbetulinic acid]
- IC50 at 72 h [3]: > 10 µM
- activity in the MTP inhibition assay (in words) [2]: active
- activity in the NF-κB inhibition assay (in words) (NF-κB p65 in HeLa cells): exhibited activity

Compound: CC1(C)CC[C@]2(C(=O)O)CC[C@]3(C)C(=CC[C@@H]4[C@@]5(C)CC[C@H](O)C(C)(C)[C@@H]5CC[C@]43C)[C@@H]2C1 [Compound 8, (+)-oleanolic acid]
- activity in the cytotoxicity assays (in words) [1]: Neither 8 nor 9 showed activity
- activity in the MTP inhibition assay (in words) [2]: inactive

Compound: C=C(C)[C@@H]1CC[C@]2(CO)CC[C@]3(C)[C@H](CC[C@@H]4[C@@]5(C)CC[C@H](O)C(C)(C)[C@@H]5CC[C@]43C)[C@@H]12 [Compound 12, (+)-betulin]
- activity in the cytotoxicity assays (in words) [1]: did not show any activities
- IC50 at 72 h [3]: > 10 µM
- activity in the MTP inhibition assay (in words) [2]: did not show any activities; also recorded: inactive
- activity in the NF-κB inhibition assay (in words) (NF-κB p65 in HeLa cells): exhibited activity

Compound: C=C(C)[C@@H]1CC[C@]2(C(=O)O)CC[C@]3(C(=O)O)[C@H](CC[C@@H]4[C@@]5(C)CC[C@H](O)C(C)(C)[C@@H]5CC[C@]43C)[C@@H]12 [Compound 4, (+)-melaleucic acid]
- IC50 at 72 h [3]: > 10 µM

Compound: C=C(C)[C@@H]1CC[C@]2(C(=O)O)CC[C@]3(C)[C@H](CC[C@@H]4[C@@]5(C)C[C@@H](O)[C@H](O)C(C)(C)[C@@H]5CC[C@]43C)[C@@H]12 [Compound 5, (+)-alphitolic acid]
- IC50 at 72 h [3]: > 10 µM
- activity in the NF-κB inhibition assay (in words) (NF-κB p65 in HeLa cells): exhibited activity
